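Cells were grown in 96-well plates and exposed to each compound for 48 hours at five concentrations; endpoints were interpolated linearly between bracketing concentrations, or set to the highest concentration if not reached. Definition used: TGI = concentration required for complete inhibition of growth.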
How the values were obtained:
Experiment in all cases: DTP human tumour cell line panel, 48 h
SNB-75 CNS = tested on: SNB-75 CNS
U251 CNS = tested on: U251 CNS
NCI/ADR-RES ovarian = tested on: NCI/ADR-RES ovarian
SK-MEL-28 melanoma = tested on: SK-MEL-28 melanoma
OVCAR-3 ovarian = tested on: OVCAR-3 ovarian
EKVX NSCLC = tested on: EKVX NSCLC
SF-539 CNS = tested on: SF-539 CNS
M14 melanoma = tested on: M14 melanoma
HCC-2998 colon = tested on: HCC-2998 colon
OVCAR-8 ovarian = tested on: OVCAR-8 ovarian
SK-MEL-2 melanoma = tested on: SK-MEL-2 melanoma
TK-10 renal = tested on: TK-10 renal
HL-60(TB) leukemia = tested on: HL-60(TB) leukemia
CCRF-CEM leukemia = tested on: CCRF-CEM leukemia
UO-31 renal = tested on: UO-31 renal
HCT-116 colon = tested on: HCT-116 colon
MOLT-4 leukemia = tested on: MOLT-4 leukemia
LOX IMVI melanoma = tested on: LOX IMVI melanoma
SF-295 CNS = tested on: SF-295 CNS
RPMI-8226 leukemia = tested on: RPMI-8226 leukemia
NCI-H23 lung = tested on: NCI-H23 lung
NCI-H226 lung = tested on: NCI-H226 lung
OVCAR-4 ovarian = tested on: OVCAR-4 ovarian
PC-3 prostate = tested on: PC-3 prostate
SK-OV-3 ovarian = tested on: SK-OV-3 ovarian
MDA-N = tested on: MDA-N
SR leukemia = tested on: SR leukemia
BT-549 breast = tested on: BT-549 breast
COLO 205 colon = tested on: COLO 205 colon
SN12C renal = tested on: SN12C renal
HCT-15 colon = tested on: HCT-15 colon
SNB-19 CNS = tested on: SNB-19 CNS
IGROV1 ovarian = tested on: IGROV1 ovarian
UACC-257 melanoma = tested on: UACC-257 melanoma
OVCAR-5 ovarian = tested on: OVCAR-5 ovarian
MCF7 breast = tested on: MCF7 breast
UACC-62 melanoma = tested on: UACC-62 melanoma
MDA-MB-435 = tested on: MDA-MB-435
HOP-62 NSCLC = tested on: HOP-62 NSCLC
MDA-MB-231 breast = tested on: MDA-MB-231 breast
RXF 393 renal = tested on: RXF 393 renal
A498 renal = tested on: A498 renal
SW-620 colon = tested on: SW-620 colon
T-47D breast = tested on: T-47D breast
HOP-92 NSCLC = tested on: HOP-92 NSCLC
CAKI-1 renal = tested on: CAKI-1 renal
HT29 colon = tested on: HT29 colon
DU-145 prostate = tested on: DU-145 prostate
SK-MEL-5 melanoma = tested on: SK-MEL-5 melanoma
HS 578T breast = tested on: HS 578T breast
786-0 renal = tested on: 786-0 renal
A549 NSCLC = tested on: A549 NSCLC
SF-268 CNS = tested on: SF-268 CNS
K-562 leukemia = tested on: K-562 leukemia
NCI-H460 lung = tested on: NCI-H460 lung
KM12 colon = tested on: KM12 colon
ACHN renal = tested on: ACHN renal
NCI-H522 lung = tested on: NCI-H522 lung

Measured: TGI

c1ccc(-c2cc(-c3cccs3)c(-c3cccs3)o2)cc1
not listed: NCI-H522 lung
> 100 µM: all other assays above

Cn1c(=O)c2c(nc(Nc3ccc(Cl)cc3)n3c(=O)n(-c4ccccc4)c(=O)n23)n(C)c1=O
not listed: SK-OV-3 ovarian
> 100 µM: all other assays above
